US20240325340A1, “ISOFORM SPECIFIC AGONISTS TARGETING AKT KINASE” (Thomas Jefferson University, priority 2021, published 2024)
“Also recorded” adds a separate entry of the source. One block for each molecule: values may come before it.

Experiments:
A549 cells = assay: Cytotoxicity by release of lactate dehydrogenase (LDH) in A549 cells; type: cell-based, human; settings: 40 μM, 24 hours, serum-free media
Protocol: Cytotoxicity was determined by the release of lactate dehydrogenase (LDH) into cell culture media. A549 cells were incubated with 40 μM of each compound for 24 hours in serum-free media (n=3 for each compound). FIG. 8B: A visual assessment of cell morphology after 24 hrs treatment with 40 μM of each compound in serum-free media. 100× images are shown.

cells = assay: Cellular toxicity (cells not specified); type: cell-based
Hacat cells = assay: Cellular toxicity / cell morphology in Hacat cells after 24 hrs; type: cell-based, human; settings: 40 μM
Akt [1] = assay: Akt activation (phospho-T308, p-PRAS40) in human epithelial cells (Hacat); type: cell-based; settings: for synergy with FBS in Akt activation: 10 μM or 20 μM with 0.25% fetal bovine serum; for synergy with FBS in Akt activation / Akt activation at low dose (phospho-T308): Hacat; for synergy with FBS in Akt activation / Akt activation at low dose (phospho-T308) / phosphorylation of Akt substrate PRAS40: 6 hr; for Akt activation at low dose (phospho-T308): 10 μM or 20 μM; for efficacy in Akt activation compared to RA97 / length of action in Akt activation compared to RA97 / phosphorylation of Akt substrate PRAS40: 40 μM, serum-starved Hacat; for efficacy in Akt activation compared to RA97 / length of action in Akt activation compared to RA97: 2 hr, 4 hr or 24 hr
Protocol: FIGS. 6A-6D illustrate immunoblots for Akt activators converted from non-PAINS Akt antagonists. FIG. 6A: 40 μM of each compound derived from sulfonamides, di-tert butylphenols, or pyridines were incubated in human epithelial cells (A549) for 2.5 hr. Lysates were probed for phospho-T308 and total Akt (tAkt) using ProteinSimple WES digital western system. Insulin was uses as positive control. […] 40 μM of each compound was incubated in serum-starved human epithelial cells (Hacat) for 2 hr, 4 hr, or 24 hr as indicated. Cell lysates were probed for phospho-T308 and total Akt (tAkt). […] 10 μM or 20 μM of T775 or T776 were incubated with or without 0.25% fetal bovine serum (FBS) medium in human epithelial cells (Hacat) for 6 hr. Cell lysates were probed for phospho-T308, total Akt (tAkt), and GAPDH. […] 40 μM of each compound was incubated in serum-starved human epithelial cells (Hacat) for 6 hr. Cell lysates were probed for phospho-T308, total Akt (tAkt), Akt substrate, p-PRAS40, and GAPDH.

[2] = cited from earlier work
Akt [3] = assay: Ceramide and cathepsin G blockade of insulin activation of Akt in H9C2 myoblasts; type: cell-based
Protocol: H9C2 myoblasts or neonatal rat myocytes were treated with neutrophil protease Cathepsin G (0.01 U/mL), 4 hr or with 100 μM C2-Ceramide (100 μM), 2 hr. Then cells were stimulated with insulin with or without 30 μM T625 for 30 minutes. Lysates were immunoblotted with the indicated antibodies.

Compound stability = type: physicochemical
recombinant pAkt1 = recombinant pAkt1 (Homo sapiens, UniProt P31749); assay: Recombinant phospho-Akt dephosphorylation by PP2A or total cellular phosphatase extracts (immunoblot pT308); type: biochemical; settings: 40 μM compound, 30 minutes at 30° C.
Protocol: FIG. 1A: Recombinant phospho-Akt (50 ng) were pre-mixed with DMSO or with 40 μM 4H-Chromenes with carboxylate side chain (SC-79 and HA-14) or with 60 μM malononitrile side chain (T625) at 4° C. Then recombinant PP2A (70 ng PP2A-C) or total cellular phosphatase extracts were added and incubated for 30 minutes at 30° C. After incubation, protein extracts were subjected to immunoblot analysis using antibodies detecting phosphorylated Akt (T308), total Akt and PP2A catalytic subunit. FIG. 1B comprises a graph showing the percentage of Akt dephosphorylation at 30 minutes (Dephos. %) (n=6) *P<0.01 vs. DMSO.

Sequence of recombinant pAkt1 (P31749 whole entry): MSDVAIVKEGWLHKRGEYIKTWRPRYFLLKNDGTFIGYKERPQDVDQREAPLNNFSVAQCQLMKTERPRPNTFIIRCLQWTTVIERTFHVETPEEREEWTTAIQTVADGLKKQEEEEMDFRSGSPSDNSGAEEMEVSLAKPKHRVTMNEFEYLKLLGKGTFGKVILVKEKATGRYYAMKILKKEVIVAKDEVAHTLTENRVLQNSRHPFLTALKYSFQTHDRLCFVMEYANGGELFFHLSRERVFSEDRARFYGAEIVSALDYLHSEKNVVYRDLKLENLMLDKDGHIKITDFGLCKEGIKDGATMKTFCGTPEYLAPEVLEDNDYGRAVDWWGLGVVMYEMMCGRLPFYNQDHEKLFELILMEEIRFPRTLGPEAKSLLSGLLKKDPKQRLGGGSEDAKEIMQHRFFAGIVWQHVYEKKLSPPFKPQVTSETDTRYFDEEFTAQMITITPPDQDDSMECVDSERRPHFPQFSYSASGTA

Molecule: CCCc1nc2ccc(Cl)cc2c(CCC(=O)OCC)c1C(=O)OCC [T775, ethyl 6-chloro-4-(3-ethoxy-3-oxopropyl)-2-propylquinoline-3-carboxylate]
cellular toxicity (LDH release) (A549 cells): failed to show significant cellular toxicity
toxicity compared to RA97 (cells): lack of toxicity
cellular toxicity (Hacat cells): failed to show significant cellular toxicity
synergy with FBS in Akt activation (Akt [1]): synergize with FBS
Akt activation at low dose (phospho-T308) (Akt [1]): activate Akt
efficacy in Akt activation compared to RA97 (Akt [1]): improved efficacy
length of action in Akt activation compared to RA97 (Akt [1]): improved length of action
phosphorylation of Akt substrate PRAS40 (Akt [1]): phosphorylated Akt substrate, PRAS40

Molecule: CC(C)(Sc1cc(C(C)(C)C)c(O)c(C(C)(C)C)c1)Sc1cc(C(C)(C)C)c(OC(=O)CCC(=O)O)c(C(C)(C)C)c1 [Succinobucol]
insulin sensitivity ([2]; literature): improve insulin sensitivity
drug safety ([2]; numerous clinical trials of specific diabetic patient populations): established drug safety record

Molecule: CCCCCCCCCCCCC/C=C/[C@@H](O)[C@H](CO)NC(C)=O [C2-ceramide, reference compound]
block of insulin activation of Akt (Akt [3]; 100 μM, 2 hr): block insulin activation of Akt

compound stability (Compound stability): highly labile
Molecule: CCOC(=O)C1=C(N)Oc2ccc(Br)cc2C1C(C#N)C(=O)OCC (centres unmarked) [HA14]
cellular toxicity (cells): toxic to cells
block of recombinant pAkt1 dephosphorylation by PP2A and cellular phosphatases (recombinant pAkt1): enhance intrinsic resistance of the Akt kinase to dephosphorylation; also recorded: block recombinant pAkt1 dephosphorylation by PP2A and cellular phosphatases

Molecule: CCOC(=O)CCc1c(C(=O)OCC)c(C(C)(C)C)nc2ccc(Cl)cc12 [T776, ethyl 2-tert-butyl-6-chloro-4-(3-ethoxy-3-oxopropyl)quinoline-3-carboxylate]
cellular toxicity (LDH release) (A549 cells): failed to show significant cellular toxicity
toxicity compared to RA97 (cells): lack of toxicity
cellular toxicity (Hacat cells): failed to show significant cellular toxicity
synergy with FBS in Akt activation (Akt [1]): synergize with FBS
Akt activation at low dose (phospho-T308) (Akt [1]): activate Akt
efficacy in Akt activation compared to RA97 (Akt [1]): improved efficacy
length of action in Akt activation compared to RA97 (Akt [1]): improved length of action
phosphorylation of Akt substrate PRAS40 (Akt [1]): phosphorylated Akt substrate, PRAS40

Molecule: CCCc1nc2ccc(Cl)cc2c(-c2ccccc2)c1C(=O)OCC [T748, ethyl 6-chloro-4-phenyl-2-propylquinoline-3-carboxylate]
toxicity compared to RA97 (cells): lack of toxicity
efficacy in Akt activation compared to RA97 (Akt [1]): improved efficacy
length of action in Akt activation compared to RA97 (Akt [1]): improved length of action

compound stability (Compound stability): highly labile
Molecule: CCOC(=O)C1=C(N)Oc2ccc(Cl)cc2C1C(C#N)C(=O)OCC (centres unmarked) [SC79]
cellular toxicity (cells): toxic to cells
block of recombinant pAkt1 dephosphorylation by PP2A and cellular phosphatases (recombinant pAkt1): enhance intrinsic resistance of the Akt kinase to dephosphorylation; also recorded: block recombinant pAkt1 dephosphorylation by PP2A and cellular phosphatases

B1: cathepsin G: neutrophil protease Cathepsin G (protein, UniProt P08311 21-244, looked up)
Cathepsin G: IIGGRESRPHSRPYMAYLQIQSPAGQSRCGGFLVREDFVLTAAHCWGSNINVTLGAHNIQRRENTQQHITARRAIRHPQYNQRTIQNDIMLLQLSRRVRRNRNVNPVALPRAQEGLRPGTLCTVAGWGRVSMRRGTDTLREVQLRVQRDRQCLRIFGSYDPRRQICVGDRRERKAAFKGDSGGPLLCNNVAHGIVSYGKSSGVPPEVFTRVSSFLPWIRTTMRS
block of insulin activation of Akt (Akt [3]; 0.01 U/mL, 4 hr): block insulin activation of Akt
